# Test results published in patent US20260272881A1, “QTX125 DRUG FORMULATIONS” (Quimatryx, S.L., priority 2022, published 2026).
# Tests used:
# pancreatic cancer = pancreatic cancer xenograft murine model; cited from earlier work
# [1] = hydroxamic acids such as QTX125; cited from earlier work
# [2] = Pharmacokinetic properties (half-lives, distribution volumes); format: in vivo; settings: compared with other histone deacetylase inhibitors
# mantle cell lymphoma = mantle cell lymphoma xenograft murine model; cited from earlier work
# lung cancer = lung cancer xenograft murine model; cited from earlier work
# [3] = Solubility in water and stability in solution of QTX125 (background); format: physicochemical
# [4] = test system: multiple sclerosis mice models; settings: two different multiple sclerosis mice models; cited from earlier work
# [5] = Genotoxicity (clastogenicity, aneugenicity)
# [6] = Solubility trials of QTX125 formulations (mixed 24 hours at room temperature); format: physicochemical; settings: aqueous HPβCD solution (HPβCD as only excipient), aqueous with cosolvent or surfactant or cyclodextrin, thermodynamic from solid; with HPβCD alone (Example 1.3)
# Procedure: The parameters required for the HPLC method used to determine the concentration of QTX125 in solution is set out below.
# HPLC determination of the percentage of QTX125 in the solutions below was determined using the protocols set out above.
# Assay (% LC) was determined by comparing the area of the peak for QTX125 to a calibration curve determined by running samples of known concentration of QTX125 (standards) on the HPLC.
# HDAC 6 = molecular target: T1, HDAC 6 (Homo sapiens, UniProt Q9UBN7); settings: cited from earlier work
# T1 sequence (Q9UBN7 1-1215): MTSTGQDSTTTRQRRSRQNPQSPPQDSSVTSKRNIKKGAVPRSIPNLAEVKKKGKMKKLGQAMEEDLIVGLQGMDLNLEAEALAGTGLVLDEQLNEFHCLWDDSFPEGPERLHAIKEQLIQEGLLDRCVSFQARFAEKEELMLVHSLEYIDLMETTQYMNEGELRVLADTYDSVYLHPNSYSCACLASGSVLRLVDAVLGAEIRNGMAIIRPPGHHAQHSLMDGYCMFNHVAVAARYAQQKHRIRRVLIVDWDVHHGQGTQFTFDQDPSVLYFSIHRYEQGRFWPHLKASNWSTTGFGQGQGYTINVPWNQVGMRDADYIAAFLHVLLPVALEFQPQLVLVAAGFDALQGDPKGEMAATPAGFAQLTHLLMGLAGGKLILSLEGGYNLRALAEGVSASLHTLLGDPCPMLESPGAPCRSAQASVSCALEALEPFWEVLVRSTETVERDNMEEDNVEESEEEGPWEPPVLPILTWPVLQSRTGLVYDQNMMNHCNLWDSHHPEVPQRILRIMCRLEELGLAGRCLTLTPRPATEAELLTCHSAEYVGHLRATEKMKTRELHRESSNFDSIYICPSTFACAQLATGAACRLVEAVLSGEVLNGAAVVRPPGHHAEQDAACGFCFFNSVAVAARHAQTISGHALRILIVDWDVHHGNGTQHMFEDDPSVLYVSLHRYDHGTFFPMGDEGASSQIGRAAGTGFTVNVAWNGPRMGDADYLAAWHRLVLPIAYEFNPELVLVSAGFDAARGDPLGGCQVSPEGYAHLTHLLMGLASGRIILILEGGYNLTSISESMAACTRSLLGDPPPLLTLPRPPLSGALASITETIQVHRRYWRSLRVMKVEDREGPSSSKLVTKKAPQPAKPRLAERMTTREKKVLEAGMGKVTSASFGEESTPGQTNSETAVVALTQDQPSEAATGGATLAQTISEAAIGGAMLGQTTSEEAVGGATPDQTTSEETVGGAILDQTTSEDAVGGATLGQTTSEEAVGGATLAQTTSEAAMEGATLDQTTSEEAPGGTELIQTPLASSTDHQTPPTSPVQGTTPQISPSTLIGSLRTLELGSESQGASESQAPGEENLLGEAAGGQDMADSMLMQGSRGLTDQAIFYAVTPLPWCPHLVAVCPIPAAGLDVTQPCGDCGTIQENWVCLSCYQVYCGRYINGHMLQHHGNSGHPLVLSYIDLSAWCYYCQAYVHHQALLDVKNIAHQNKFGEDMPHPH
# rats, mice and dogs = settings: range of animal species including rats; cited from earlier work
# mice = settings: cited from earlier work
# [7] = acute toxicity studies; cited from earlier work
molecule,measurement,setting,value
"O=C(NO)c1ccc(CNC(=O)c2[nH]c(-c3ccc(O)cc3)cc2-c2ccoc2)cc1 [QTX125, 3-(3-Furyl)-N-{4-[(hydroxyamino)carbonyl]benzyl}-5-(4-hydroxyphenyl)-1 Hpyrrole-2-carboxamide]",antitumoral efficacy,pancreatic cancer,high antitumoral efficacy
same,solubility in water,[1],very low solubility in water
same,pharmacokinetic properties (half-lives and distribution volumes),[2],higher half-lives and distribution volumes
same,antitumoral efficacy,mantle cell lymphoma,high antitumoral efficacy
same,antitumoral efficacy,lung cancer,high antitumoral efficacy
same,stability in solution,[3],physical and chemical instability in solution
same,efficacy,[4],high efficacy
same,"genotoxicity, in particular clastogenicity or aneugenicity",[5],no evidence of genotoxicity
same,solubility at 24 h,[6],140 µg/mL
same,HDAC 6 inhibition,HDAC 6,highly selective and highly potent
2-hydroxypropyl-β-cyclodextrin,tolerance,"rats, mice and dogs",well tolerated
sulfobutyl ether β cyclodextrin [SBβCD],renal histopathology,mice,no negative renal histopathology
same,acute toxicity,[7],no observable effects
